Laboratory results from patent publication US5905085A, “Trans cyclopentanyl deazaadenyl analogs useful as immunosuppressants” (Hoechst Marion Roussel, Inc., priority 1997, dated 1999).
Counter-ions that a name gives are not always drawn.

How the values were obtained:
[1] = tested on: Tumor Necrosis Factor alpha; test: Inhibition of Tumor Necrosis Factor alpha in LPS-stimulated PBMC (ELISA); format: cell-based; details: human PBMC adherent cells, 1 μg/ml LPS from E. coli, 18 hours; read-out: IC50 (TNF-α inhibition)
Experimental: Peripheral blood mononuclear cells (PBMC) are isolated from venous blood collected from healthy volunteers in sodium citrate (5 ml of 3.6% sodium citrate for 45 ml of blood) by density gradient centrifugation of 5 minutes at 1500 rpm. The PBMC are resuspended in about 10 ml of RPMI-1640 with antibiotics. Approximately 2×10^6 cells of PBMC are added to tissue culture plates, incubated for 45-60 minutes at 37° C. with 5% CO2, aspirated, and washed twice by adding about 0.5 ml fresh RPMI-1640 with 10% non-mitogenic FBS (RPMI complete) and shaking for 15 to 30 seconds. 1.0 ml RPMI-1640 is added per well to the remaining adherent cells, which are pretreated with test compound solution about 15 minutes prior to endotoxin stimulation (1 μg/ml lipopolysaccharide from E. coli or solvent concentrations equal to those of test compounds.
Cultures are incubated for 18 hours t 37° C. in 5% CO2. Supernatants are tested from TNF-a using a commercial ELISA kit (Cistron, Pine Brook, N.J.). The IC50 is determined using SOFTmax software program.

[2] = tested on: MHC class II antigen on rat macrophages; test: Regulation of MHC class II expression on macrophages (flow cytometry, OX-6/OX-42); format: cell-based
Experimental: Using the method of Edwards (J. of Cell Biochemistry 5E, 155(1991)), the ability of a compound of formula (1) to reduce Major Histocompatibility complex (MHC) class II antigen levels on macrophages (M.phi.) obtained from M.tuberculosis-treated rats may be measured. Cells obtained from treated rats are plated into tissue culture for a period of 4 hours to purify adherent cells, then treated with increasing levels of drug for a period of 18 hours. After this incubation period, cells are scraped from the dishes and stained using flow cytometry analysis with various monoclonal antibodies such as OX-6 a monoclonal antibody specific for MHC class II antigens and OX-42 a monoclonal antibody specific for rat macrophages.

[3] = tested on: rat macrophage antigen presentation to LEW/N rat T-cell hybridoma (Interleukin-2 production); test: Regulation of antigen presentation to rat T-cell hybridoma (Interleukin-2 production); format: cell-based
Experimental: Using the method of Ku (Cellular Immunology 130,(1990)) and a Lewis (LEW/N) rat T-cell hybridoma reactive with the protein methylated bovine serum albumin (mBSA), the ability of a compound of formula (1) to regulate M.phi. antigen presentation in vitro may be measured. Peritoneal macrophages obtained from LEW/N rats are plated into tissue culture and treated with 100 ug of mBSA and drug A control is prepared similarly. After a period of 18 hours the cells are washed and incubated with the T-cell hybridoma for an additional 12 hours. Supernatants from these cultures are obtained and measured for content of Interleukin-2, a T-cell derived lymphokine which is produced by activated T-cells. […] Rat macrophage antigen presentation and the subsequent production of Interleukin-2 are inhibited when drug is administered over a concentration range from 0.1 to 100 uM as illustrated in the following table.

[4] = tested on: endotoxin-induced septic shock in CFl mice; test: Regulation of endotoxin lethality (mouse endotoxin lethality model); format: in vivo; details: 100 mg/kg i.p., pretreated at t = -1 hr; challenge D-galactosamine 18 mg and LPS 50 ng; observed 8-72 hour
Experimental: Using the method of Silverstein, (J. Exp. Med. 173, 357 (1991)) a mouse endotoxin lethality model may be used to determine if a compound of formula (1) has the ability to inhibit endotoxin-induced septic shock which is dependent on the production of Tumor Necrosis Factor-α (TNF-α). CFl mice pretreated at time (t)=-1 hr with drug are challenged with 18 mg of D-glactoseamine and 50 ng of LPS, then observed for death over an 8-72 hour period.

Row | SMILES | IC50 [1] [µM] | OX-6/OX-42 double positive macrophages ([2]; 10 μM, 18 hours, positive control 59%) [%] | inhibition at 10 µM ([2]; Rattus norvegicus, Macrophage, 18 h, read-out: reduction of MHC II antigen expression on rat macrophages in vitro compared to positive control) [%] | inhibition at 0.1 µM ([3]; Rattus norvegicus, T-cell, in vitro concentration 0.1 μM) [%] | inhibition at 1 µM ([3]; Rattus norvegicus, T-cell, in vitro concentration 1.0 μM) [%] | inhibition at 10 µM ([3]; Rattus norvegicus, T-cell, in vitro concentration 10.0 μM) [%] | inhibition at 100 µM ([3]; Rattus norvegicus, T-cell, in vitro concentration 100.0 μM) [%] | Rat macrophage antigen presentation and subsequent production of Interleukin-2 ([3]; concentration range from 0.1 to 100 uM) | T-cell activation ([3]; in vitro, mBSA antigen, rat T-cell hybridoma) | protection against endotoxin lethality [4]
1 | Nc1nc(Cl)nc2c1ncn2[C@@H]1CC[C@@H](O)C1 [(1R,3R)-Trans-1-[9-(6-amino-2-cholopurinyl)]cyclopentan-3-ol hydrochloride] | 4.1 | – | – | – | – | – | – | – | – | –
2 | Nc1ncnc2c1ncn2[C@@H]1CCC[C@H]1O (relative stereo) [(±)-Trans-1-(9-adenyl)-2-hydroxycyclopentane, reference compound] | 22.2 | – | – | – | – | – | – | – | – | –
3 | Nc1ncnc2c1ncn2[C@@H]1CC[C@@H](O)C1 [(1R,3R)-TRANS-1(9-ADENYL)CYCLOPENTAN-3-OL HYDROCHLORIDE] | 9 | 39 | ~33 | 7.6 | 30.9 | 48.7 | 55.3 | inhibited | inhibits T-cell activation | protects against endotoxin lethality
